Reference: ChEMBL document CHEMBL5344443, “Manzamine-A Alters In Vitro Calvarial Osteoclast Function” (J Nat Prod, 2024)
Activity calls are given as the source filed them. The rule behind the calls is not given here.

Tests used:
Format in all cases: functional, cell-based
RAW264.7 [1] = assay: Disruption of differentiated mouse RAW 264.7 osteoclast assessed as reduction in cell density at 120 uM incubated for 72 hrs by TRAP staining
RAW264.7 [2] = assay: Downregulation of Six1 mRNA expression in mouse differentiated RAW 264.7 osteoclasts cells at 47 uM incubated for 24 hrs by qRT-PCR analysis
RAW264.7 [3] = assay: Induction of apoptosis in mouse differentiated RAW 264.7 osteoclast cells at 120 uM incubated for 72 hrs by Caspase 3/7 assay
RAW264.7 [4] = assay: Disruption of differentiated mouse RAW 264.7 osteoclast assessed as reduction in cell density at 1.6 uM incubated for 24 hrs by TRAP staining
RAW264.7 [5] = assay: Induction of apoptosis in mouse RAW 264.7 preosteoclast cells at 2.5 uM incubated for 24 hrs by Caspase 3/7 assay
RAW264.7 [6] = assay: Disruption of differentiated mouse RAW 264.7 osteoclast assessed as loss of osteoclast at 47 uM incubated for 48 hrs by TRAP staining
RAW264.7 [7] = assay: Disruption of differentiated mouse RAW 264.7 osteoclast assessed as reduction in cell density at 1.6 uM incubated for 72 hrs by TRAP staining
RAW264.7 [8] = assay: Disruption of differentiated mouse RAW 264.7 osteoclast assessed as loss of osteoclast at 47 uM incubated for 24 hrs by TRAP staining
RAW264.7 [9] = assay: Induction of apoptosis in mouse differentiated RAW 264.7 osteoclast cells at 47 uM incubated for 24 hrs by Caspase 3/7 assay
RAW264.7 [10] = assay: Induction of apoptosis in mouse differentiated RAW 264.7 osteoclast cells at 47 uM incubated for 72 hrs by Caspase 3/7 assay
RAW264.7 [11] = assay: Disruption of differentiated mouse RAW 264.7 osteoclast assessed as loss of osteoclast at 120 uM incubated for 72 hrs by TRAP staining
RAW264.7 [12] = assay: Disruption of differentiated mouse RAW 264.7 osteoclast assessed as loss of osteoclast at 120 uM incubated for 24 hrs by TRAP staining
RAW264.7 [13] = assay: Antiproliferative activity against mouse differentiated RAW 264.7 osteoclast cells assessed as reduction in cell viability incubated for 72 hrs by MTS viability assay; settings: RAW264.7, 72 h
RAW264.7 [14] = assay: Disruption of differentiated mouse RAW 264.7 osteoclast assessed as reduction in cell density at 47 uM incubated for 48 hrs by TRAP staining
RAW264.7 [15] = assay: Downregulation of Six1 mRNA expression in mouse differentiated RAW 264.7 osteoclasts cells at 47 uM incubated for 48 hrs by qRT-PCR analysis
RAW264.7 [16] = assay: Downregulation of Six1 mRNA expression in mouse differentiated RAW 264.7 osteoclasts cells at 120 uM incubated for 24 hrs by qRT-PCR analysis
RAW264.7 [17] = assay: Downregulation of Six1 mRNA expression in mouse RAW 264.7 preosteoclasts at 2.5 uM incubated for 24 hrs by qRT-PCR analysis
RAW264.7 [18] = assay: Antiproliferative activity against mouse RAW 264.7 preosteoclast cells assessed as reduction in cell viability incubated for 72 hrs by MTS viability assay; settings: RAW264.7, 72 h
RAW264.7 [19] = assay: Induction of apoptosis in mouse RAW 264.7 preosteoclast cells at 2.5 uM incubated for 72 hrs by Caspase 3/7 assay
RAW264.7 [20] = assay: Induction of apoptosis in mouse differentiated RAW 264.7 osteoclast cells at 1.6 uM incubated for 72 hrs by Caspase 3/7 assay
RAW264.7 [21] = assay: Antiproliferative activity against mouse differentiated RAW 264.7 osteoclast cells assessed as reduction in cell viability incubated for 24 hrs by MTS viability assay; settings: RAW264.7, 24 h
RAW264.7 [22] = assay: Disruption of differentiated mouse RAW 264.7 osteoclast assessed as reduction in cell density at 120 uM incubated for 48 hrs by TRAP staining
RAW264.7 [23] = assay: Downregulation of Six1 mRNA expression in mouse differentiated RAW 264.7 osteoclasts cells at 120 uM incubated for 48 hrs by qRT-PCR analysis
RAW264.7 [24] = assay: Disruption of differentiated mouse RAW 264.7 osteoclast assessed as reduction in cell density at 1.6 uM incubated for 48 hrs by TRAP staining
RAW264.7 [25] = assay: Disruption of differentiated mouse RAW 264.7 osteoclast assessed as loss of osteoclast at 47 uM incubated for 72 hrs by TRAP staining
RAW264.7 [26] = assay: Antiproliferative activity against mouse differentiated RAW 264.7 osteoclast cells assessed as reduction in cell viability incubated for 48 hrs by MTS viability assay; settings: RAW264.7, 48 h
RAW264.7 [27] = assay: Induction of apoptosis in mouse differentiated RAW 264.7 osteoclast cells at 1.6 uM incubated for 24 hrs by Caspase 3/7 assay
RAW264.7 [28] = assay: Disruption of differentiated mouse RAW 264.7 osteoclast assessed as reduction in cell density at 47 uM incubated for 24 hrs by TRAP staining
RAW264.7 [29] = assay: Induction of apoptosis in mouse differentiated RAW 264.7 osteoclast cells at 120 uM incubated for 48 hrs by Caspase 3/7 assay
RAW264.7 [30] = assay: Disruption of differentiated mouse RAW 264.7 osteoclast assessed as reduction in cell density at 47 uM incubated for 72 hrs by TRAP staining
RAW264.7 [31] = assay: Disruption of differentiated mouse RAW 264.7 osteoclast assessed as loss of osteoclast at 1.6 uM incubated for 24 hrs by TRAP staining
RAW264.7 [32] = assay: Disruption of differentiated mouse RAW 264.7 osteoclast assessed as loss of osteoclast at 1.6 uM incubated for 48 hrs by TRAP staining
RAW264.7 [33] = assay: Disruption of differentiated mouse RAW 264.7 osteoclast assessed as loss of osteoclast at 1.6 uM incubated for 72 hrs by TRAP staining
RAW264.7 [34] = assay: Antiproliferative activity against mouse RAW 264.7 preosteoclast cells assessed as reduction in cell viability incubated for 48 hrs by MTS viability assay; settings: RAW264.7, 48 h
RAW264.7 [35] = assay: Downregulation of Six1 mRNA expression in mouse RAW 264.7 preosteoclasts at 2.5 uM incubated for 48 hrs by qRT-PCR analysis
RAW264.7 [36] = assay: Disruption of differentiated mouse RAW 264.7 osteoclast assessed as reduction in cell density at 120 uM incubated for 24 hrs by TRAP staining
RAW264.7 [37] = assay: Induction of apoptosis in mouse differentiated RAW 264.7 osteoclast cells at 120 uM incubated for 24 hrs by Caspase 3/7 assay
RAW264.7 [38] = assay: Induction of apoptosis in mouse differentiated RAW 264.7 osteoclast cells at 1.6 uM incubated for 48 hrs by Caspase 3/7 assay
RAW264.7 [39] = assay: Disruption of differentiated mouse RAW 264.7 osteoclast assessed as loss of osteoclast at 120 uM incubated for 48 hrs by TRAP staining
RAW264.7 [40] = assay: Antiproliferative activity against mouse RAW 264.7 preosteoclast cells assessed as reduction in cell viability incubated for 24 hrs by MTS viability assay; settings: RAW264.7, 24 h

O[C@]12C=C(c3nccc4c3[nH]c3ccccc34)[C@@H]3CCN(CCCC/C=C\CC1)C[C@@]31C[C@@H]3/C=C\CCCCN3[C@H]12 [MANZAMINE A]
Activity (RAW264.7 [1]): Active
Activity (RAW264.7 [2]): Active
Activity (RAW264.7 [3]): inactive
Activity (RAW264.7 [4]): inactive
Activity (RAW264.7 [5]): Active
Activity (RAW264.7 [6]): Active
Activity (RAW264.7 [7]): Active
Activity (RAW264.7 [8]): Active
Activity (RAW264.7 [9]): Active
Activity (RAW264.7 [10]): inactive
Activity (RAW264.7 [11]): Active
Activity (RAW264.7 [12]): Active
IC50 (RAW264.7 [13]): 47 µM
Activity (RAW264.7 [14]): Active
Activity (RAW264.7 [15]): Active
Activity (RAW264.7 [16]): Active
Activity (RAW264.7 [17]): Active
IC50 (RAW264.7 [18]): 1.9 µM
Activity (RAW264.7 [19]): inactive
Activity (RAW264.7 [20]): inactive
IC50 (RAW264.7 [21]): 1.6 µM
Activity (RAW264.7 [22]): Active
Activity (RAW264.7 [23]): Active
Activity (RAW264.7 [24]): Active
Activity (RAW264.7 [25]): Active
IC50 (RAW264.7 [26]): 120 µM
Activity (RAW264.7 [27]): Active
Activity (RAW264.7 [28]): Active
Activity (RAW264.7 [29]): inactive
Activity (RAW264.7 [30]): Active
Activity (RAW264.7 [31]): inactive
Activity (RAW264.7 [32]): Active
Activity (RAW264.7 [33]): Active
IC50 (RAW264.7 [34]): 2.2 µM
Activity (RAW264.7 [35]): Active
Activity (RAW264.7 [36]): Active
Activity (RAW264.7 [37]): Active
Activity (RAW264.7 [38]): Active
Activity (RAW264.7 [39]): Active
IC50 (RAW264.7 [40]): 2.5 µM
